What was measured:
[1] = tested on: 20-HETE synthase derived from rat kidney microsome; assay: Inhibitory effect of 20-HETE synthase derived from rat kidney microsome; type: biochemical; conditions: SHR rat kidney microsome; for IC50: concentration at which 20-HETE production was inhibited to 50%; for Inhibition (1 µM): inhibition rate of 20-HETE production, subject compound 1 μM, 3H-arachidonic acid, NADPH, 1.5 hours at 37° C., pH 7.4
Experimental: [Inhibitory Effect of 20-HETE Synthase Derived from Rat Kidney Microsome]
Regarding the compounds listed in the Table described above, their inhibitory activities on production of 20-HETE were examined.
This examination was carried out based on the method described in J. Pharmacol. Exp. Ther., Vol. 268, p. 474 (1994).
The subject compound in an amount of 1 μM was added to a 50 mM of 3-morpholinopropanesulfonic acid buffer (MOPS) (pH 7.4), containing 5 mM of magnesium chloride, and 1 mM of ethylenediaminetetraacetic acid (EDTA) disodium salt.
Subsequently, the rat kidney microsome fraction prepared from the kidney of a spontaneously hypertensive rat (male, 6 weeks of age) as an enzyme, [5,6,8,9,11,12,14,15] tritium-arachidonic acid (supplied by Amasham) as a substrate, and NADPH (supplied by Sigma) as a coenzyme were added, and were reacted for 1.5 hours at 37° C.
After the reaction was quenched by adding formic acid (supplied by Wako Pure Chemical Industries Ltd.) to the reaction solution, acetonitrile (final concentration of 50%) was added thereto, and the mixture was allowed to stand for 1.5 hours at room temperature. The amount of 20-HETE production was measured by using a high performance liquid chromatography having a detector for radioactive substances (supplied by Gilson), equipped with an ODS column (Biocyl C18, supplied by Bio-rad).
Setting an amount of 20-HETE production to 100% when no subject compound was added, the inhibition rate (%) was calculated from the amount of 20-HETE production when a subject compound was added.
In addition, setting an amount of 20-HETE production to 100% when no subject compound was added, the concentration of the subject compound at which the production of the 20-HETE was inhibited to 50% when the subject compound is added (IC50 value) was also calculated.

In the case of `CC#CCCOc1ccc(N/C=N/O)cn1` [Comp. 46], the IC50 [1] is reported as 9.8 nM, the “Inhibition (1 µM)” value [1] is reported as 89.9% and the melting point is reported as 151 to 152 °C.

For `CC/C=C/COc1ccc(N/C=N/O)cn1` [Comp. 47], the IC50 [1] was 45.4 nM, the “Inhibition (1 µM)” value [1] was 99.2% and the melting point was 82 to 84 °C.

In the case of `CC(C)CCOc1ccc(N/C=N/O)cn1` [Comp. 53], the IC50 [1] is reported as 6.8 nM, the “Inhibition (1 µM)” value [1] is reported as 108.5% and the melting point is reported as 123 to 125 °C.

In the case of `C=CCCCOc1ccc(N/C=N/O)cn1` [Comp. 54], the IC50 [1] is reported as 5.9 nM, the “Inhibition (1 µM)” value [1] is reported as 111.7% and the melting point is reported as 120 to 122 °C.

In the case of `C=CCCOc1ccc(N/C=N/O)cn1` [Comp. 55], the “Inhibition (1 µM)” value [1] is reported as 87.3% and the melting point is reported as 119 to 120 °C.

For `C#CCCCOc1ccc(N/C=N/O)cn1` [Comp. 56], the IC50 [1] was 14.7 nM, the “Inhibition (1 µM)” value [1] was 102.1% and the melting point was 124.5 to 125.5 °C.

With `CCOCCCOc1ccc(N/C=N/O)cn1` [Comp. 59] the IC50 [1] was 4.4 nM, the “Inhibition (1 µM)” value [1] was 109.6% and the melting point was 99 to 100 °C.

In the case of `CCCCOCCOc1ccc(N/C=N/O)cn1` [Comp. 61], the IC50 [1] is reported as 13.1 nM, the “Inhibition (1 µM)” value [1] is reported as 99.8% and the melting point is reported as 113 to 114.5 °C.

In the case of `CC#CCOc1ccc(N/C=N/O)cn1` [Comp. 65, N-[2-(2-butyn-1-oxy)pyridin-5-yl]-N′-hydroxyformamidine], the IC50 [1] is reported as 68.2 nM, the “Inhibition (1 µM)” value [1] is reported as 86.9% and the melting point is reported as 155.5 to 157 °C.

With `COc1ccccc1CCOc1ccc(N/C=N/O)cn1` [Comp. 69] the IC50 [1] was 6.5 nM, the “Inhibition (1 µM)” value [1] was 102.8% and the melting point was 159.5 to 161 °C.

For `COc1ccccc1COc1ccc(N/C=N/O)cn1` [Comp. 72], the IC50 [1] was 59 nM, the “Inhibition (1 µM)” value [1] was 92.9% and the melting point was 146.5 to 147.5 °C.

In the case of `O/N=C/Nc1ccc(OCc2cc(F)ccc2F)nc1` [Comp. 73], the IC50 [1] is reported as 6.4 nM, the “Inhibition (1 µM)” value [1] is reported as 105.0% and the melting point is reported as 158.5 to 159.5 °C.

For `COc1ccc(COc2ccc(N/C=N/O)cn2)cc1` [Comp. 77], the IC50 [1] was 3.3 nM, the “Inhibition (1 µM)” value [1] was 100.3% and the melting point was 164.5 to 165.5 °C.

With `COc1cccc(COc2ccc(N/C=N/O)cn2)c1` [Comp. 78] the IC50 [1] was 4.2 nM, the “Inhibition (1 µM)” value [1] was 100.2% and the melting point was 126 to 127 °C.

For `O/N=C/Nc1ccc(OCc2ccc(F)cc2)nc1` [Comp. 80], the IC50 [1] was 3.9 nM, the “Inhibition (1 µM)” value [1] was 102.9% and the melting point was 166.5 to 167.5 °C.

In the case of `N#Cc1cccc(COc2ccc(N/C=N/O)cn2)c1` [Comp. 81], the IC50 [1] is reported as 1.7 nM, the “Inhibition (1 µM)” value [1] is reported as 104.4% and the melting point is reported as 166.5 to 167 °C.

For `COc1cccc(COc2ccc(N/C=N/O)cn2)c1OC` [Comp. 82], the IC50 [1] was 60.1 nM, the “Inhibition (1 µM)” value [1] was 104.5% and the melting point was 128.5 to 129 °C.

In the case of `O/N=C/Nc1ccc(OCC2COCO2)nc1` (stereo not drawn) [Comp. 87], the IC50 [1] is reported as 264 nM, the “Inhibition (1 µM)” value [1] is reported as 87.0% and the melting point is reported as 186.5 to 187 °C.

For `O/N=C/Nc1ccc(OCCCn2cccc2)nc1` [Comp. 91], the IC50 [1] was 6.4 nM, the “Inhibition (1 µM)” value [1] was 103.0% and the melting point was 140 to 141 °C.

For `CSCCOc1ccc(N/C=N/O)cn1` [Comp. 92], the IC50 [1] was 71.9 nM, the “Inhibition (1 µM)” value [1] was 87.6% and the melting point was 111.5 to 112 °C.

In the case of `CSCCCOc1ccc(N/C=N/O)cn1` [Comp. 93], the IC50 [1] is reported as 6.6 nM, the “Inhibition (1 µM)” value [1] is reported as 97.4% and the melting point is reported as 109 to 111 °C.

For `O/N=C/Nc1ccc(OCCOc2ccccc2)nc1` [Comp. 94], the IC50 [1] was 3.2 nM, the “Inhibition (1 µM)” value [1] was 100.3% and the melting point was 153 to 154 °C.

In the case of `O/N=C/Nc1ccc(OCC2CCCO2)nc1` (stereo not drawn) [Comp. 96], the IC50 [1] is reported as 140 nM, the “Inhibition (1 µM)” value [1] is reported as 92.3% and the melting point is reported as 114 to 115 °C.

With `O/N=C/Nc1ccc(OCC2CCCCO2)nc1` (stereo not drawn) [Comp. 97] the IC50 [1] was 58.1 nM, the “Inhibition (1 µM)” value [1] was 85.5% and the melting point was 149.5 to 152.5 °C.

For `O/N=C/Nc1ccc(OCCc2cccs2)nc1` [Comp. 98], the IC50 [1] was 4.3 nM, the “Inhibition (1 µM)” value [1] was 100.7% and the melting point was 137.5 to 138.5 °C.

For `O/N=C/Nc1ccc(OCCc2ccsc2)nc1` [Comp. 99], the IC50 [1] was 1.9 nM, the “Inhibition (1 µM)” value [1] was 95.4% and the melting point was 138 to 140 °C.

For `CC(C)Sc1ccc(N/C=N/O)cn1` [Comp. 102], the IC50 [1] was 18.2 nM, the “Inhibition (1 µM)” value [1] was 74.5% and the melting point was 141 to 142 °C.

For `O/N=C/Nc1ccc(SCc2ccccc2)nc1` [Comp. 104, N-[2-(benzylthio)pyridin-5-yl]-N′-hydroxyformamidine], the “Inhibition (1 µM)” value [1] was 103.6% and the melting point was 133 to 135 °C.

In the case of `OCCSc1ccc(N/C=N/O)cn1` [Comp. 107], the IC50 [1] is reported as 294 nM, the “Inhibition (1 µM)” value [1] is reported as 83.1% and the melting point is reported as 115 to 115.5 °C.

For `O/N=C/Nc1ccc(SC2CCCC2)nc1` [Comp. 109], the IC50 [1] was 11.5 nM, the “Inhibition (1 µM)” value [1] was 82.1% and the melting point was 153.5 to 154.5 °C.

For `O/N=C/Nc1ccc(SCc2ccco2)nc1` [Comp. 110], the IC50 [1] was 12.1 nM, the “Inhibition (1 µM)” value [1] was 85.7% and the melting point was 140.5 to 141.5 °C.

With `CCC(C)Sc1ccc(N/C=N/O)cn1` (stereo not drawn) [Comp. 111] the IC50 [1] was 33.8 nM, the “Inhibition (1 µM)” value [1] was 76.8% and the melting point was 125.5 to 127.5 °C.

For `CC(C)(C)Sc1ccc(N/C=N/O)cn1` [Comp. 117], the IC50 [1] was 435 nM, the “Inhibition (1 µM)” value [1] was 69.3% and the melting point was 174.5 to 175 °C.

In the case of `OCCCSc1ccc(N/C=N/O)cn1` [Comp. 120], the IC50 [1] is reported as 117 nM, the “Inhibition (1 µM)” value [1] is reported as 102.0% and the melting point is reported as 105 to 105.5 °C.

With `C#CCOc1ccc(N/C=N/O)cn1` [Comp. 121] the IC50 [1] was 400 nM, the “Inhibition (1 µM)” value [1] was 99.8% and the melting point was 143.5 to 144.5 °C.

In the case of `CN(C)CC(C)(C)COc1ccc(N/C=N/O)cn1` [Comp. 123, N-[2-(3-dimethylamino-2,2-dimethylpropyl-1-oxy)pyridin-5-yl]-N′-hydroxyformamidine], the IC50 [1] is reported as 0.6 nM, the “Inhibition (1 µM)” value [1] is reported as 97.5% and the melting point is reported as 74 to 76.5 °C.

With `CN1CCCC(COc2ccc(N/C=N/O)cn2)C1` (stereo not drawn) [Comp. 124] the IC50 [1] was 142 nM, the “Inhibition (1 µM)” value [1] was 92.6% and the melting point was 122 to 124 °C.

Work on `CCN(CC)CCSc1ccc(N/C=N/O)cn1` [Comp. 127] yielded an IC50 [1] of 330 nM and a melting point of 124.5 to 125.5 °C.

Molecule `CN1CCC(CCOc2ccc(N/C=N/O)cn2)CC1` [Comp. 128] has an IC50 [1] of 312 nM and a melting point of 131 to 133 °C.

In the case of `CN(C)CCCOc1ccc(N/C=N/O)cn1` [Comp. 132], the IC50 [1] is reported as 566 nM and the melting point is reported as 108 to 112 °C.

Work on `CN(C)CCCCCCOc1ccc(N/C=N/O)cn1` [Comp. 133] yielded an IC50 [1] of 53.6 nM and a melting point of 110 to 111.5 °C.
